# Assay results published in PMC5464911, “SEL120-34A is a novel CDK8 inhibitor active in AML cells with high levels of serine phosphorylation of STAT1 and STAT5 transactivation domains” (Oncotarget, 2017).
# Tests used:
# MV4-11 tumors = assay: MV4-11 AML xenograft; type: in vivo, SCID mice
# Procedure: Figure 9 SEL120-34A inhibits growth of AML tumors in a dose- dependent manner (A) Volume kinetic of KG-1 tumors and (B) MV4-11 tumors grown subcutaneously in SCID mice, treated orally with vehicle (water) or indicated doses of SEL120-34A once every day. Changes in animals’ body weights are shown in the inset; n=8, SD is shown. (C) Levels of total STAT1, STAT3 and STAT5 and phosphorylated […], Y701, STAT3 S727, Y705, STAT5 726, Y694 were analyzed in KG-1 tumors from control (vehicle) and SEL120-34A treated animals at day 23. (D) Levels of total on STAT5 and phosphorylated STAT5 S726, Y694, MCL-1, PARP and Cleaved PARP, total RNAPII and phosphorylated RNAPII CTD S2 were analyzed in MV4-11 tumors from control (vehicle) and SEL120-34A treated animals at day 17.
# All animals were handled in strict accordance with good animal practice as defined by the relevant national and local animal welfare bodies. Animals, SCID/beige C.B17 female mice were provided by Harlan Laboratories or Charles River Laboratories, and were maintained in pathogen free conditions.
# Mice were inoculated subcutaneously (sc) above the groin on the right hind limb with 4×10^6 MV-4-11 or KG-1 leukemia cells, 5×10^6 Colo-205 CRC cells in a 0.1 ml mixture (3:1, v:v) of PBS and Matrigel (BD Biosciences, Growth Factor Reduced, Phenol Red-free; #356231). Once tumors reached a mean volume of approximately 100 mm^3 for tumor growth assessment or 250mm^3 for pharmacodynamics assessment, the mice were then randomly divided into uniform groups followed by compound or vehicle administration. Prior to use, the test compound was dissolved freshly in water at indicated doses and administered per os (PO) using cannula in a volume of 10 μl per 1 g of body weight. After the last administration, mice were subjected to anesthesia for blood collection, and sacrificed for tumor collection.
# STAT1 S727 = assay: IFN-dependent STAT1 S727 phosphorylation in HCT-116 cells (WB); type: cell-based; details: IFNa or IFNg for 4 hours, increasing concentrations
# Procedure: (B) SEL120-34A inhibits IFN-dependent phosphorylation of STAT1 S727. HCT-116 cells stimulated with IFNg for 4 h were treated with increasing doses of SEL120-34A, Flavopiridol (F) or vehicle DMSO (C) to determine changes in the phosphorylation of STAT1 S727 and Y701, as measured by WB. (*) unspecific band. (C) SEL120-34A inhibits serine phosphorylation of STAT1 S727 and STAT5 S726, whereas Ruxolitinib inhibits tyrosine phosphorylation of STAT1 Y701 and STAT5 Y694 in JAK2 V617F cells. SET-2 cells were treated with Ruxolitinib, SEL120-34A or vehicle DMSO (C) for 24 hours and protein levels of pS727, pY701 STAT1 and pS726, pY694 STAT5 were measured by WB. […]
# 0,1% SDS; 20 mM β-glicerol phosphate; 5 mM NaF; cat. # sc835), α-STAT5-pS726 (1:1000; Abcam, cat. # 1 mM Na3VO4) supplemented with protease inhibitors ab128896), α-STAT5-pY694 (1:1000; Cell Signaling, (Santa Cruz Biotechnology). […] Protein concentration in lysates (1:20000; Sigma, cat. # G9545) was measured by the Bradford assay and adjusted to achieve the same final concentration in each well (20-30 mRNA extraction from xenograft tissue μg protein/well). […] Prior to microarray analyses, the quality of the incubation with secondary donkey anti-rabbit antibodies RNA samples was determined using an Agilent 2100 conjugated to HRP, used at 1:4000 (Cell Signaling, Bioanalyzer (Agilent Technologies, CA, USA). […]
structure (smiles),measurement,setting,value
Cc1c(Br)c(Br)c2c3c1nc(N1CCNCC1)n3CCC2 [SEL120-34A],body weight,"MV4-11 tumors; MV4-11 xenograft, oral once every day",without appreciable loss in body weight
same,MCL-1 in MV4-11 tumors,"MV4-11 tumors; oral once every day, day 17",repression
same,STAT5 S726 and total STAT5 levels in MV4-11 tumors,"MV4-11 tumors; oral once every day, day 17",repressed
same,phosphorylation levels of RNAPII CTD S2 in MV4-11 tumors,"MV4-11 tumors; oral once every day, day 17",without any appreciable reduction
same,volume of MV4-11 tumors,"MV4-11 tumors; oral, once every day",reduced volume
same,STAT1 S727 phosphorylation,STAT1 S727,dose-depended inhibition
